Test results as given in PubChem BioAssay AID1845195 (Molecular Pharmacology Branch, DTP, NCI, 2023).

Test system: 156681-154-R-J1 tumor spheroid viability
Assay: Anticancer human tumor 156681-154-R-J1 patient-derived melanoma cell line growth inhibition
Conditions: spheroids with HUVEC and MSC; for IC50: curve of first compound; for viability, T/C: stronger effect = lower value
In short: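 Single agents and combinations were tested on spheroids built from tumor cells plus HUVEC and hMSC, at half-log dilutions starting at or near clinical Cmax, else 10 microM; final DMSO 0.25% (v/v).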
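Note: spheroids exposed to compounds for 7 days before readout.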
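Throughout, for viability, T/C: percent of vehicle control viability where 100% = DMSO-treated spheroids.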

With `Cc1sc2c(c1C)C(c1ccc(Cl)cc1)=NC(CC(=O)Nc1ccc(O)cc1)c1nnc(C)n1-2` (stereo not given) + Cn1nnc2c(C(N)=O)ncn2c1=O the IC50 (second compound 1 µM) was > 3000 nM, the IC50 (second compound 3.16 µM) was 857 nM and the IC50 (second compound 10 µM) was 128 nM. The IC50 (second compound 31.6 µM) was 20.4 nM, the IC50 (second compound 100 µM) was 14.8 nM and the viability, T/C (second compound 1 µM, first compound 0.00949 µM) was 92%. The viability, T/C (second compound 1 µM, first compound 0.03 µM) was 76%, the viability, T/C (second compound 1 µM, first compound 0.0949 µM) was 81.5% and the viability, T/C (second compound 1 µM, first compound 0.3 µM) was 80.7%. For the same molecule, the viability, T/C (second compound 1 µM, first compound 0.949 µM) was 70.9%, the viability, T/C (second compound 1 µM, first compound 3 µM) was 57% and the viability, T/C (second compound 3.16 µM, first compound 0.00949 µM) was 90.3%. It also gave a viability, T/C (second compound 3.16 µM, first compound 0.03 µM) of 70.2%, a viability, T/C (second compound 3.16 µM, first compound 0.0949 µM) of 76.4% and a viability, T/C (second compound 3.16 µM, first compound 0.3 µM) of 54.9%. It also gave a viability, T/C (second compound 3.16 µM, first compound 0.949 µM) of 52.4%, a viability, T/C (second compound 3.16 µM, first compound 3 µM) of 37.4% and a viability, T/C (second compound 10 µM, first compound 0.00949 µM) of 79.1%. It also gave a viability, T/C (second compound 10 µM, first compound 0.03 µM) of 75.5%, a viability, T/C (second compound 10 µM, first compound 0.0949 µM) of 47.9% and a viability, T/C (second compound 10 µM, first compound 0.3 µM) of 41.3%. It also gave a viability, T/C (second compound 10 µM, first compound 0.949 µM) of 35.6%, a viability, T/C (second compound 10 µM, first compound 3 µM) of 24.4% and a viability, T/C (second compound 31.6 µM, first compound 0.00949 µM) of 62.3%. The viability, T/C (second compound 31.6 µM, first compound 0.03 µM) was 43%, the viability, T/C (second compound 31.6 µM, first compound 0.0949 µM) was 31.8% and the viability, T/C (second compound 31.6 µM, first compound 0.3 µM) was 29%. For the same molecule, the viability, T/C (second compound 31.6 µM, first compound 0.949 µM) was 22.6%, the viability, T/C (second compound 31.6 µM, first compound 3 µM) was 18.6% and the viability, T/C (second compound 100 µM, first compound 0.00949 µM) was 53.4%. For the same molecule, the viability, T/C (second compound 100 µM, first compound 0.03 µM) was 44.5%, the viability, T/C (second compound 100 µM, first compound 0.0949 µM) was 26.4% and the viability, T/C (second compound 100 µM, first compound 0.3 µM) was 13.6%. The viability, T/C (second compound 100 µM, first compound 0.949 µM) was 12.3% and the viability, T/C (second compound 100 µM, first compound 3 µM) was 11.7%.
For `CC1COCCN1c1cc(-c2ccnn2C)c2ccnc(-c3ccn[nH]3)c2n1` (stereo not given) + COc1cc2c(cc1O)CCNC21CSC2c3c(OC(C)=O)c(C)c4c(c3C(COC1=O)N1C(O)C3Cc5cc(C)c(OC)c(O)c5C(C21)N3C)OCO4, the IC50 (second compound 30 pM) was 190 nM, the IC50 (second compound 94.9 pM) was 104 nM and the IC50 (second compound 0.0003 µM) was < 31.6 nM. For the same molecule, the IC50 (second compound 0.000949 µM) was < 31.6 nM, the IC50 (second compound 0.003 µM) was < 31.6 nM and the viability, T/C (second compound 30 pM, first compound 0.0316 µM) was 96.4%. The viability, T/C (second compound 30 pM, first compound 0.1 µM) was 62.2%, the viability, T/C (second compound 30 pM, first compound 0.316 µM) was 39.9% and the viability, T/C (second compound 30 pM, first compound 1 µM) was 29.9%. The viability, T/C (second compound 30 pM, first compound 3.16 µM) was 27.3%, the viability, T/C (second compound 30 pM, first compound 10 µM) was 22.6% and the viability, T/C (second compound 94.9 pM, first compound 0.0316 µM) was 78.7%. The viability, T/C (second compound 94.9 pM, first compound 0.1 µM) was 50.7%, the viability, T/C (second compound 94.9 pM, first compound 0.316 µM) was 33.6% and the viability, T/C (second compound 94.9 pM, first compound 1 µM) was 30%. The viability, T/C (second compound 94.9 pM, first compound 3.16 µM) was 22.1%, the viability, T/C (second compound 94.9 pM, first compound 10 µM) was 21.9% and the viability, T/C (second compound 0.0003 µM, first compound 0.0316 µM) was 49.5%. It also gave a viability, T/C (second compound 0.0003 µM, first compound 0.1 µM) of 41.1%, a viability, T/C (second compound 0.0003 µM, first compound 0.316 µM) of 23.9% and a viability, T/C (second compound 0.0003 µM, first compound 1 µM) of 20.6%. It also gave a viability, T/C (second compound 0.0003 µM, first compound 3.16 µM) of 21.3%, a viability, T/C (second compound 0.0003 µM, first compound 10 µM) of 20.1% and a viability, T/C (second compound 0.000949 µM, first compound 0.0316 µM) of 6.51%. For the same molecule, the viability, T/C (second compound 0.000949 µM, first compound 0.1 µM) was 2.7%, the viability, T/C (second compound 0.000949 µM, first compound 0.316 µM) was 4.04% and the viability, T/C (second compound 0.000949 µM, first compound 1 µM) was 3.29%. It also gave a viability, T/C (second compound 0.000949 µM, first compound 3.16 µM) of 0.29%, a viability, T/C (second compound 0.000949 µM, first compound 10 µM) of 0.17% and a viability, T/C (second compound 0.003 µM, first compound 0.0316 µM) of 0.23%. The viability, T/C (second compound 0.003 µM, first compound 0.1 µM) was 0.22%, the viability, T/C (second compound 0.003 µM, first compound 0.316 µM) was 0.16% and the viability, T/C (second compound 0.003 µM, first compound 1 µM) was 0.13%. For the same molecule, the viability, T/C (second compound 0.003 µM, first compound 3.16 µM) was 0.14% and the viability, T/C (second compound 0.003 µM, first compound 10 µM) was 0.25%.
